Measured values from the NIST ThermoML archive (doi:10.1021/acs.jced.5b00934).

Conditions: Liquid, Vibrating tube method

CC(C)(C)O [2-methylpropan-2-ol]
Conditions	mass density [kg/m3]
323.15 K, 502 kPa	754.4
323.15 K, 901 kPa	754.9
323.15 K, 1004 kPa	755
323.15 K, 2003 kPa	756.1
323.15 K, 3002 kPa	757.2
323.15 K, 5004 kPa	759.4
323.15 K, 7002 kPa	761.5
323.15 K, 9002 kPa	763.5
323.15 K, 10002 kPa	764.5
323.15 K, 12000 kPa	766.5
323.15 K, 14999 kPa	769.3
323.15 K, 17998 kPa	772.1
323.15 K, 20000 kPa	773.9
323.15 K, 22000 kPa	775.7
323.15 K, 25000 kPa	778.2
323.15 K, 27995 kPa	780.7
323.15 K, 30002 kPa	782.4
323.15 K, 32000 kPa	784
323.15 K, 33000 kPa	784.7
323.15 K, 33001 kPa	784.7
323.15 K, 34000 kPa	785.5
323.15 K, 35004 kPa	786.2
323.15 K, 38000 kPa	788.5
323.15 K, 39998 kPa	790
323.15 K, 41998 kPa	791.5
323.15 K, 45000 kPa	793.6
323.15 K, 47996 kPa	795.7
323.15 K, 50000 kPa	797.1
323.15 K, 51998 kPa	798.4
323.15 K, 55006 kPa	800.5
323.15 K, 57995 kPa	802.4
323.15 K, 60000 kPa	803.7
328.15 K, 101 kPa	748.4
328.15 K, 298 kPa	748.7
328.15 K, 499 kPa	748.9
328.15 K, 898 kPa	749.4
328.15 K, 1005 kPa	749.5
328.15 K, 2001 kPa	750.7
328.15 K, 3001 kPa	751.9
328.15 K, 5001 kPa	754.1
328.15 K, 7001 kPa	756.3
328.15 K, 9004 kPa	758.5
328.15 K, 9999 kPa	759.5
328.15 K, 11999 kPa	761.6
328.15 K, 15004 kPa	764.5
328.15 K, 18006 kPa	767.4
328.15 K, 19995 kPa	769.2
328.15 K, 22000 kPa	771
328.15 K, 24996 kPa	773.6
328.15 K, 27998 kPa	776.2
328.15 K, 30005 kPa	777.9
328.15 K, 32005 kPa	779.5
328.15 K, 33023 kPa	780.3
328.15 K, 33038 kPa	780.4
328.15 K, 34013 kPa	781.1
328.15 K, 35004 kPa	781.9
328.15 K, 38002 kPa	784.3
328.15 K, 40024 kPa	785.8
328.15 K, 41999 kPa	787.2
328.15 K, 45002 kPa	789.4
328.15 K, 47997 kPa	791.6
328.15 K, 49992 kPa	793
328.15 K, 55000 kPa	796.4
328.15 K, 57995 kPa	798.3
328.15 K, 60003 kPa	799.6
328.16 K, 51996 kPa	794.3
333.15 K, 103 kPa	742.8
333.15 K, 307 kPa	743.1
333.15 K, 502 kPa	743.3
333.15 K, 915 kPa	743.8
333.15 K, 1007 kPa	744
333.15 K, 2013 kPa	745.2
333.15 K, 3006 kPa	746.4
333.15 K, 5002 kPa	748.8
333.15 K, 7005 kPa	751.1
333.15 K, 9001 kPa	753.3
333.15 K, 9999 kPa	754.3
333.15 K, 12003 kPa	756.5
333.15 K, 15000 kPa	759.6
333.15 K, 17995 kPa	762.5
333.15 K, 19997 kPa	764.4
333.15 K, 21996 kPa	766.2
333.15 K, 24994 kPa	768.9
333.15 K, 27993 kPa	771.6
333.15 K, 30003 kPa	773.3
333.15 K, 32004 kPa	775
333.15 K, 32850 kPa	775.7
333.15 K, 32871 kPa	775.7
333.15 K, 34000 kPa	776.6
333.15 K, 34990 kPa	777.4
333.15 K, 38004 kPa	779.8
333.15 K, 39997 kPa	781.4
333.15 K, 41998 kPa	782.9
333.15 K, 44909 kPa	785.1
333.15 K, 48119 kPa	787.4
